Measured values taken from patent publication US20240158370A1, “CK1 alpha AND DUAL CK1 alpha / GSPT1 DEGRADING COMPOUNDS” (Innovo Therapeutics, Inc., priority 2022, published 2024).

Tests used:
GSPT1 = GSPT1 (Homo sapiens, UniProt P15170+Q96SW2); assay: HiBiT degradation assay, GSPT1, Procedure A; type: cell-based; parameters: HiBit-GSPT1 KI HEK293(LgBit) Cells; host or cells: HEK293(LgBit) knock-in cells
Summary of the method: (§1)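 DC50 and Ymin (% remaining) were derived by four-parameter fitting of luminescence data. The data come from a six-hour, 37° C compound exposure of cells in DMEM/10% FBS over a ten-point range, 10 μM to 0.005 μM, followed by Nano-Glo HiBiT lytic detection.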

CK1α = biological target: T1, CK1α (Homo sapiens, UniProt P48729+Q96SW2); assay: HiBiT degradation assay, CK1α, Procedure A; type: cell-based
T1 construct: CSNK1A1-HiBit KI HEK293(LgBit) Cells; host or cells: HEK293(LgBit) knock-in cells
Summary of the method: as §1

GSPT1, sequence (P15170 whole entry): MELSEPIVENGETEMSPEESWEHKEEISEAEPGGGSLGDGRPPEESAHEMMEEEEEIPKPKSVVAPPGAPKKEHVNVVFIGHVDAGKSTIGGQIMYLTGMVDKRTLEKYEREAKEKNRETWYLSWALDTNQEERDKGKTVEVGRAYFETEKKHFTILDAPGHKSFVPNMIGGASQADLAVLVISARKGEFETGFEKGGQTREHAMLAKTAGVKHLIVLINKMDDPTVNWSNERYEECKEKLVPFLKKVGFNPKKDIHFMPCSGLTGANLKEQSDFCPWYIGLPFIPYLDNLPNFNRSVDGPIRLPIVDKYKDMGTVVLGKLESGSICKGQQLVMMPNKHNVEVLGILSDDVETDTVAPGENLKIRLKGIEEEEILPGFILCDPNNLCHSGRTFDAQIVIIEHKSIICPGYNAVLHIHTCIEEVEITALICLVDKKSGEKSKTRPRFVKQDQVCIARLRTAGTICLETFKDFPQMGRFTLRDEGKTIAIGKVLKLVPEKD
GSPT1, sequence (Q96SW2 whole entry): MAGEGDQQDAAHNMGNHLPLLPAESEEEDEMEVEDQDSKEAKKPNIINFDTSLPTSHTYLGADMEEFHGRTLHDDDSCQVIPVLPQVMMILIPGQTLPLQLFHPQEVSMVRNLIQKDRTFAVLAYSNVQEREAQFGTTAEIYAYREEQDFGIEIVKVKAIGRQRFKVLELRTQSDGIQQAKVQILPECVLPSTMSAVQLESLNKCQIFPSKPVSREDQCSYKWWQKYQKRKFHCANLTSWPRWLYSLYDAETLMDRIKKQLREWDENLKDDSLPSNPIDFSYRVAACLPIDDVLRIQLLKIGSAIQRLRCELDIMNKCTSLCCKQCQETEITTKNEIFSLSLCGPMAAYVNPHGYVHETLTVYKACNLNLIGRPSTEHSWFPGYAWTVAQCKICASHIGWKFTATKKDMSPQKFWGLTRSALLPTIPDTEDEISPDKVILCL
GSPT1, sequence (Q16531 whole entry partner): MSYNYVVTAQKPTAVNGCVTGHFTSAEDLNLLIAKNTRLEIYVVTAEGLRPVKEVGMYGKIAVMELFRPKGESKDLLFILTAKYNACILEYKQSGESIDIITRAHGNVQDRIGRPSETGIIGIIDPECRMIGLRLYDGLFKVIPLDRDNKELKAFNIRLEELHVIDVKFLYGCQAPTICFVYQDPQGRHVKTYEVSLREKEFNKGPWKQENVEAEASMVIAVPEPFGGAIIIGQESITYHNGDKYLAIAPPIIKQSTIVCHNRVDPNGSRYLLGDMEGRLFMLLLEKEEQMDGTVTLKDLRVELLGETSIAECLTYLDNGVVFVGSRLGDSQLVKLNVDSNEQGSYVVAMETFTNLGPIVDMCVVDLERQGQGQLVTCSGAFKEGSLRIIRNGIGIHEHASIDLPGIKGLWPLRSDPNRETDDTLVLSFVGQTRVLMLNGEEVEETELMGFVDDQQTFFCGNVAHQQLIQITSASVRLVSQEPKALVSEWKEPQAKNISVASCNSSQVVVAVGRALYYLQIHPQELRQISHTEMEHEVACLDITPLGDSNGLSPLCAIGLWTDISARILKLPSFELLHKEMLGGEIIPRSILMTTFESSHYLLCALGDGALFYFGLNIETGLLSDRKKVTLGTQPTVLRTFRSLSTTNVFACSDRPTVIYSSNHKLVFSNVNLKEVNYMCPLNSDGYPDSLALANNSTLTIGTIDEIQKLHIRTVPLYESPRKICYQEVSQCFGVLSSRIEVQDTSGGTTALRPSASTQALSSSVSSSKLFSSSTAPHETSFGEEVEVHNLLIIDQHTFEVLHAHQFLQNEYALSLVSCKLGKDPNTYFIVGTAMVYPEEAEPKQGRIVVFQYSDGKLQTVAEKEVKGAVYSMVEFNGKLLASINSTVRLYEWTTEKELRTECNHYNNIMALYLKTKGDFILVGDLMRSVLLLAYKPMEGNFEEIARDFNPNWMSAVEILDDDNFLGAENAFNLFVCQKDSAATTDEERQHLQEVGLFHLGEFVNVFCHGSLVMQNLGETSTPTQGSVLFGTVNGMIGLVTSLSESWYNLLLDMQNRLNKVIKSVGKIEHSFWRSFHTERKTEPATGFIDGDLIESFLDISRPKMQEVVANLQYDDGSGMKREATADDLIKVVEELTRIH
T1 sequence (P48729 whole entry): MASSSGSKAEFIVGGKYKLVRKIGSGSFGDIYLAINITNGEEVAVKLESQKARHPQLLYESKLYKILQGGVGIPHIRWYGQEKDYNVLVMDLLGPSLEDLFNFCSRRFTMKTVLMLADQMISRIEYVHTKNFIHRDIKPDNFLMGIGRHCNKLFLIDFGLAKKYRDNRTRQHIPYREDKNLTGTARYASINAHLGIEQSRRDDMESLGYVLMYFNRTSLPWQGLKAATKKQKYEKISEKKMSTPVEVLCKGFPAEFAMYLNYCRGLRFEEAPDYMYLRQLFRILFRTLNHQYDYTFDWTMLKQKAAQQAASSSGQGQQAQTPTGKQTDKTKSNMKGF
T1 sequence (Q96SW2 whole entry): as the sequence (Q96SW2 whole entry) above
T1 sequence (Q16531 whole entry partner): as the sequence (Q16531 whole entry partner) above

| SMILES | DC50 (GSPT1; six hours incubation) | GSPT1 Ymin (GSPT1; six hours incubation) | CK1α Ymin (CK1α; six hours incubation) | DC50 (CK1α; six hours incubation) | DC50 (GSPT1; six hours) | GSPT1 Ymin (GSPT1; six hours) | CK1α Ymin (CK1α; six hours) | DC50 (CK1α; six hours) |
| --- | --- | --- | --- | --- | --- | --- | --- | --- |
| Cc1ccc(Cl)c(-c2c(-c3ccc4c(c3)CN(C3CCC(=O)NC3=O)C4=O)cnn2C)c1 (stereo not shown) [Example 86] | ≥ 25 nM | F (F = >75-100% remaining) | E (E = >25-75% remaining) | < 25 nM | – | – | – | – |
| Cn1cnc(-c2ccc3c(c2)CN(C2CCC(=O)NC2=O)C3=O)c1-c1ccc(F)cc1 (stereo not shown) [Example 10, 3-(5-(5-(4-Fluorophenyl)-1-methyl-1H-imidazol-4-yl)-1-oxoisoindolin-2-yl)piperidine-2,6-dione] | ≥ 25 nM | E (E = >25-75% remaining) | C (C = 0-10% remaining) | < 25 nM | – | – | – | – |
| Cn1cnc(-c2ccc3c(c2)CN(C2CCC(=O)NC2=O)C3=O)c1-c1ccc(C#N)cc1 (stereo not shown) [Example 165] | ≥ 25 nM | F (F = >75-100% remaining) | D (D = >10- 25% remaining) | < 25 nM | – | – | – | – |
| Cn1ncc(-c2ccc3c(c2)CN(C2CCC(=O)NC2=O)C3=O)c1-c1ccc(C(C)(F)F)cc1 (stereo not shown) [Example 541, 3-(5-(5-(4-(1,1-difluoroethyl)phenyl)-1-methyl-1H-pyrazol-4-yl)-1-oxoisoindolin-2-yl)piperidine-2,6-dione] | – | – | – | – | < 25 nM | F (F = >75-100% remaining) | D (D = >10- 25% remaining) | < 25 nM |
| COc1cc(-c2nc(-c3ccc4c(c3)CN(C3CCC(=O)NC3=O)C4=O)cn2C)ccc1Cl (stereo not shown) [Example 579] | – | – | – | – | < 25 nM | F (F = >75-100% remaining) | C (C = 0-10% remaining) | < 25 nM |
| COc1ccc(-c2c(-c3ccc4c(c3)CN(C3CCC(=O)NC3=O)C4=O)ncn2C)c(C)c1 (stereo not shown) [Example 188] | < 25 nM | E (E = >25-75% remaining) | C (C = 0-10% remaining) | < 25 nM | – | – | – | – |
| Cn1ncc(-c2ccc3c(c2)CN(C2CCC(=O)NC2=O)C3=O)c1-c1ccc(COc2ccccc2)cc1 (stereo not shown) [Example 112] | ≥ 25 nM | F (F = >75-100% remaining) | D (D = >10- 25% remaining) | < 25 nM | – | – | – | – |
| CC(C)n1ccc(-c2c(-c3ccc4c(c3)CN(C3CCC(=O)NC3=O)C4=O)ncn2C)n1 (stereo not shown) [Example 487] | – | – | – | – | ≥ 25 nM | F (F = >75-100% remaining) | E (E = >25-75% remaining) | < 25 nM |
| Cn1nc(-c2ccc3c(c2)CN(C2CCC(=O)NC2=O)C3=O)nc1N1CCCCCC1 (stereo not shown) [Example 611, 3-(5-(5-(azepan-1-yl)-1-methyl-1H-1,2,4-triazol-3-yl)-1-oxoisoindolin-2-yl)piperidine-2,6-dione] | – | – | – | – | ≥ 25 nM | F (F = >75-100% remaining) | C (C = 0-10% remaining) | < 25 nM |
| Cc1c(-c2ccc3c(c2)CN(C2CCC(=O)NC2=O)C3=O)nn(C)c1-c1ccccc1 (stereo not shown) [Example 211, 3-(5-(1,4-Dimethyl-5-phenyl-1H-pyrazol-3-yl)-1-oxoisoindolin-2-yl)piperidine-2,6-dione] | ≥ 25 nM | F (F = >75-100% remaining) | C (C = 0-10% remaining) | < 25 nM | – | – | – | – |
| COc1cncc(-c2c(-c3ccc4c(c3)CN(C3CCC(=O)NC3=O)C4=O)cnn2C)c1 (stereo not shown) [Example 456] | – | – | – | – | ≥ 25 nM | F (F = >75-100% remaining) | E (E = >25-75% remaining) | ≥ 25 nM |
| Cc1cccc(F)c1-c1c(-c2ccc3c(c2)CN(C2CCC(=O)NC2=O)C3=O)ncn1C (stereo not shown) [Example 172] | ≥ 25 nM | F (F = >75-100% remaining) | E (E = >25-75% remaining) | < 25 nM | – | – | – | – |
| CN1CCN(Cc2cccc(-c3c(-c4ccc5c(c4)CN(C4CCC(=O)NC4=O)C5=O)ncn3C)c2)CC1 (stereo not shown) [Example 312] | ≥ 25 nM | F (F = >75-100% remaining) | D (D = >10- 25% remaining) | ≥ 25 nM | – | – | – | – |
| O=C1CCC(N2Cc3cc(-c4cn(C5CC5)c(-c5ccccc5)n4)ccc3C2=O)C(=O)N1 (stereo not shown) [Example 704, 3-(5-(1-cyclopropyl-2-phenyl-1H-imidazol-4-yl)-1-oxoisoindolin-2-yl)piperidine-2,6-dione] | – | – | – | – | ≥ 25 nM | F (F = >75-100% remaining) | C (C = 0-10% remaining) | < 25 nM |
| COc1cc(-c2c(-c3ccc4c(c3)CN(C3CCC(=O)NC3=O)C4=O)cnn2C)ccc1C (stereo not shown) [Example 78] | ≥ 25 nM | F (F = >75-100% remaining) | E (E = >25-75% remaining) | < 25 nM | – | – | – | – |
| Cn1cc(-c2ccc3c(c2)CN(C2CCC(=O)NC2=O)C3=O)nc1-c1ccn2ccnc2c1 (stereo not shown) [Example 585] | – | – | – | – | < 25 nM | F (F = >75-100% remaining) | D (D = >10- 25% remaining) | ≥ 25 nM |
| COc1ccc(Cl)c(-c2c(-c3ccc4c(c3)CN(C3CCC(=O)NC3=O)C4=O)ncn2C)c1 (stereo not shown) [Example 275] | ≥ 25 nM | F (F = >75-100% remaining) | D (D = >10- 25% remaining) | < 25 nM | – | – | – | – |
| CC(C)Cc1ccc(-c2c(-c3ccc4c(c3)CN(C3CCC(=O)NC3=O)C4=O)ncn2C)cc1 (stereo not shown) [Example 265] | ≥ 25 nM | F (F = >75-100% remaining) | D (D = >10- 25% remaining) | < 25 nM | – | – | – | – |
| Cn1ncc(-c2ccc3c(c2)CN(C2CCC(=O)NC2=O)C3=O)c1-c1ccc(Cl)c(F)c1 (stereo not shown) [Example 90] | ≥ 25 nM | F (F = >75-100% remaining) | E (E = >25-75% remaining) | < 25 nM | – | – | – | – |
| Cn1ncc(-c2ccc3c(c2)CN(C2CCC(=O)NC2=O)C3=O)c1-c1ccn(-c2ccc(F)cc2)n1 (stereo not shown) [Example 396] | – | – | – | – | ≥ 25 nM | F (F = >75-100% remaining) | E (E = >25-75% remaining) | < 25 nM |
| Cn1cnc(-c2ccc3c(c2)CN(C2CCC(=O)NC2=O)C3=O)c1-c1ccccc1 (stereo not shown) [Example 2, 3-(5-(1-Methyl-5-phenyl-1H-imidazol-4-yl)-1-oxoisoindolin-2-yl)piperidine-2,6-dione] | < 25 nM | E (E = >25-75% remaining) | C (C = 0-10% remaining) | < 25 nM | – | – | – | – |
| COc1ncccc1-c1c(-c2ccc3c(c2)CN(C2CCC(=O)NC2=O)C3=O)ncn1C (stereo not shown) [Example 327] | < 25 nM | F (F = >75-100% remaining) | D (D = >10- 25% remaining) | < 25 nM | – | – | – | – |
| CN1CCN(Cc2ccc(-c3c(-c4ccc5c(c4)CN(C4CCC(=O)NC4=O)C5=O)ncn3C)cc2)CC1 (stereo not shown) [Example 313] | ≥ 25 nM | F (F = >75-100% remaining) | D (D = >10- 25% remaining) | ≥ 25 nM | – | – | – | – |
| Cn1c(C2OCCCO2)nc(-c2ccc3c(c2)CN(C2CCC(=O)NC2=O)C3=O)c1-c1ccccc1 (stereo not shown) [Example 419, 3-(5-(2-(1,3-dioxan-2-yl)-1-methyl-5-phenyl-1H-imidazol-4-yl)-1-oxoisoindolin-2-yl)piperidine-2,6-dione] | – | – | – | – | ≥ 25 nM | F (F = >75-100% remaining) | C (C = 0-10% remaining) | < 25 nM |
| COc1cccc(-c2c(-c3ccc4c(c3)CN(C3CCC(=O)NC3=O)C4=O)ncn2C)c1Cl (stereo not shown) [Example 277] | < 25 nM | F (F = >75-100% remaining) | E (E = >25-75% remaining) | < 25 nM | – | – | – | – |
| Cc1cc(-c2c(-c3ccc4c(c3)CN(C3CCC(=O)NC3=O)C4=O)ncn2C)c(C)s1 (stereo not shown) [Example 241] | ≥ 25 nM | F (F = >75-100% remaining) | D (D = >10- 25% remaining) | < 25 nM | – | – | – | – |
| Cn1cnc(-c2ccc3c(c2)CN(C2CCC(=O)NC2=O)C3=O)c1-c1cc(F)ccc1Cl (stereo not shown) [Example 350] | ≥ 25 nM | F (F = >75-100% remaining) | D (D = >10- 25% remaining) | ≥ 25 nM | – | – | – | – |
| Cn1cnc(-c2ccc3c(c2)CN(C2CCC(=O)NC2=O)C3=O)c1-c1ccc(N2CCOCC2)nc1 (stereo not shown) [Example 404] | – | – | – | – | ≥ 25 nM | F (F = >75-100% remaining) | E (E = >25-75% remaining) | ≥ 25 nM |
